# Experimental data from US5585382A, “Polycyclic and heterocyclic chromophores for bis-imide tumoricidals” (The DuPont Merck Pharmaceutical Company, priority 1995, dated 1996).
# Read-outs that look alike come from different tables or passages of the source.
# Tests used:
# [1] = system: Murine leukemia L1210 cells; test: In vitro growth inhibition of L1210 cells (MTT, 72 hr); type: cell-based; conditions: Mus musculus, read-out: L1210 IC50
# Outline: (§1)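 Cells seeded on day 0 (1×10^3 L1210 or 8×10^2 Clone A per well), graded compound concentrations added on day 1, then 72 hr at 37 °C. MTT 4 h, formazan dissolved in acidic isopropanol, read at 570/630 nm; IC50 from curve fit as half-maximal inhibition of population doublings, eight replicates.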
# [2] = system: Clone A human colon cancer cells; test: In vitro growth inhibition of Clone A cells (MTT, 72 hr); type: cell-based; conditions: read-out: Clone A IC50
# Outline: as §1
# [3] = system: DLD-2 human colon tumor; test: In vivo human tumor xenograft DLD-2 in nude mice; conditions: for Tumor Growth Inhibition activity against DLD-2 (in words): NCI criteria
# From the text: (§2) The DLD-2 human colon tumor and MX-1 human mammary carcinoma, were originally obtained from a surgically-removed primary colon carcinoma or breast tumor respectively. The human tumor lines were maintained by serial passage in athymic nude mice. The MX-1 human mammary carcinoma is an established tumor used by the NCI. The DLD-2 human colon tumor has been well characterized. (Dexter, D. L.; Spremulli, E. N.; Matook, G. M.; Diamond, I.; Calabresi, P. Cancer Research 1982, 42, 5010; Dexter, D. L.; Barbosa, J. A.; Calabresi, P. Cancer Research 1979, 39, 1020.)
# (§3) The mice used in these experiments were outbred Swiss mice or CD-1 mice bearing the nude (nu/nu) gene. On Day 0, male and female mice weighing 22-30 g are inoculated with 0.2 mL of a 25% tumor mince. This mince is prepared by mincing fresh tumor tissue, grown subcutaneously in passage mice, in sterile physiological saline. Palpable tumors weighing approximately 50 mg appear in the mice within 7-10 days after inoculation. The mice are pair matched by tumor weight and sex into groups of ten each and the test compounds and vehicle control are administered intravenously (i.v.) once daily for nine consecutive days. A >20% decrease in body weight on Day 5 following compound administration is considered an indication of toxicity. Tumor measurements and body weights are recorded once a week. Fifteen to eighteen days after the initial injection the mice are weighed, sacrificed, and the tumors excised and weighed.
# (§4) The efficacy of the test compounds is determined by the extent of tumor growth inhibition in treated versus vehicle-treated control mice. Initial tumor weights (mg) are calculated from the tumor dimensions (mm) obtained from caliper measurements, using the formula for a prolate ellipsoid (mg of tumor weight=(length×width^2)/2). Net tumor weights are calculated for each of the treated groups and the vehicle-treated control group by subtracting the initial tumor weight from the final tumor weight (Day 15-18). Results are expressed as a percentage decrease relative to the mean tumor weight for the control vehicle-treated group.
# (§5) Tumor Growth Inhibition= [formula]
# (§6) The evaluation criteria of the National Cancer Institute for activity in in vivo cancer models were used. Tumor growth inhibition of 58-89% against the various xenografts is considered moderate activity, and inhibition of ≥90% is considered good to excellent activity. Actual tumor regressions (IR=incomplete regression; FR=full regression) indicate excellent to outstanding activity.
# [4] = system: MX-1 human mammary carcinoma; test: In vivo human tumor xenograft MX-1 in nude mice; conditions: for Tumor Growth Inhibition activity against MX-1 (in words): NCI criteria
# From the text: as §2, §3, §4, §5, §6
# [5] = Solubility in water
# [6] = Mus musculus, DLD2, iv, 216 h, read-out: DLD-2 percent tumor growth inhibition
# [7] = i.v. once daily for nine days, nude mice
# [8] = Mus musculus, iv, 216 h, read-out: MX-1 tumor regressions, IR=incomplete regression
# [9] = Mus musculus, DLD2, iv, 216 h, 12.5 mg/kg, i.v. once daily for nine days, nude mice, read-out: DLD-2 percent tumor growth inhibition
# [10] = Mus musculus, iv, 216 h, read-out: MX-1 percent tumor growth inhibition
Structure (SMILES),"IC50 ([1]; L1210, 72 h)",IC50 ([2]; 72 h),"inhibition in vivo at 10 mg/kg [3, 6]","Tumor Growth Inhibition activity against DLD-2 (in words) [3, 7]","Tumor Growth Inhibition activity against MX-1 (in words) [4, 7]",solubility [5],"IC50 ([1]; L1210 cells, 72 hr, MTT)","IC50 ([2]; Clone A cells, 72 hr, MTT)",also measured
"CS(=O)(=O)O.CS(=O)(=O)O.C[C@H](CNCCNC[C@@H](C)N1C(=O)c2cc([N+](=O)[O-])cc3c2c(cc2cccnc23)C1=O)N1C(=O)c2cc([N+](=O)[O-])cc3c2c(cc2cccnc23)C1=O [Example 8, (R,R)-1,2-bis-[2-(3-Nitro-5-azaphenanthrene-1,10-dicarboximido)propylamino]ethane Dihydromethanesulfonate]",30 ng/mL,8 ng/mL,95%,moderate to excellent,moderate to excellent,4000 µg/mL,–,–,"DLD-2 tumor regressions, IR=incomplete regression ([3]; 10 mg/kg, i.v. once daily for nine days, nude mice): 2/9; MX-1 tumor regressions, FR=full regression ([4]; 5 mg/kg, i.v. once daily for nine days, nude mice): 2/9; responders at 5 mg/kg [4, 8]: 77.8%"
"CS(=O)(=O)O.CS(=O)(=O)O.Cc1nc2cc3c4c(cccc4c2[nH]1)C(=O)N(CCCNCCCCN1C(=O)c2cccc4cc([N+](=O)[O-])cc(c24)C1=O)C3=O [Example 140, 4-[3-(2-Methyl-1H-naphth[1,2-d]imidazole-5,6-dicarboximido)propylamino]-1-(3-nitronaphthalene-1,8-dicarboximido)butane Dihydromethanesulfonate]",–,–,–,–,–,9000 µg/mL,425 ng/mL,101 ng/mL,"inhibition in vivo at 50 mg/kg ([3]; Mus musculus, DLD2, iv, 216 h, 50 mg/kg, i.v. once daily for nine days, nude mice, read-out: DLD-2 percent tumor growth inhibition): 0%"
"CS(=O)(=O)O.O=C1c2cccc3cc([N+](=O)[O-])cc(c23)C(=O)N1CCCCNCCCN1C(=O)c2cccc3c2c(cc2ncccc23)C1=O [Example 114, 4-[3-(8-Azaphenanthrene-1,10-dicarboximido)propylamino]-1-(3-nitronaphthalene-1,8-dicarboximido)butane Hydromethanesulfonate]",–,–,–,moderate to excellent,moderate to excellent,680 µg/mL,< 10 ng/mL,1 ng/mL,"DLD-2 tumor regressions, IR=incomplete regression ([3]; 12.5 mg/kg, i.v. once daily for nine days, nude mice): 4/8; inhibition in vivo at 12.5 mg/kg [3, 9]: 99%; inhibition in vivo at 12 mg/kg ([4]; Mus musculus, iv, 216 h, 12 mg/kg, i.v. once daily for nine days, nude mice, read-out: MX-1 percent tumor growth inhibition): 98%; responders at 12 mg/kg ([4]; Mus musculus, iv, 216 h, 12 mg/kg, i.v. once daily for nine days, nude mice, read-out: MX-1 tumor regressions, IR=incomplete regression (converted)): 62.5%"
"O=C1c2cc([N+](=O)[O-])cc3c2c(cc2cccnc23)C(=O)N1CCNCCN1C(=O)c2cc([N+](=O)[O-])cc3c2c(cc2cccnc23)C1=O [Example 2, 2-[3-(3-Nitro-5-azaphenanthrene-1,10-dicarboximido)ethylamino]-1-(3-nitro-5-azaphenanthrene-1, 10-dicarboximido)ethane Hydromethanesulfonate]",–,–,–,–,–,10 µg/mL,20 ng/mL,44 ng/mL,"inhibition in vivo at 12.5 mg/kg [3, 9]: 0%"
"CS(=O)(=O)O.O=C1c2cccc3c2c(cc2cccnc23)C(=O)N1CCCCNCCCN1C(=O)c2cccc3c2c(cc2cccnc23)C1=O [Example 1, 4-[3-(5-Azaphenanthrene-1,10-dicarboximido)propylamino]-1-(5-azaphenanthrene-1,10-dicarboximido) butane Hydromethanesulfonate]",–,–,–,–,–,2300 µg/mL,134 ng/mL,60 ng/mL,"inhibition in vivo at 25 mg/kg ([3]; Mus musculus, DLD2, iv, 216 h, 25 mg/kg, i.v. once daily for nine days, nude mice, read-out: DLD-2 percent tumor growth inhibition): 16%"
"CS(=O)(=O)O.O=C1c2cccc3cc([N+](=O)[O-])cc(c23)C(=O)N1CCCCNCCCN1C(=O)c2cc([N+](=O)[O-])cc3c2c(cc2ncccc23)C1=O [Example 115, 4-[3-(3-Nitro-8-azaphenanthrene-1,10-dicarboximido)propylamino]-1-(3-nitronaphthalene-1,8dicarboximido)butane Hydromethanesulfonate]",3 ng/mL,1 ng/mL,90%,moderate to excellent,moderate to excellent,150 µg/mL,–,–,"inhibition in vivo at 6 mg/kg [4, 10]: 95%; responders at 6 mg/kg [4, 8]: 12.5%"
"CS(=O)(=O)O.O=C1c2cccc3cc([N+](=O)[O-])cc(c23)C(=O)N1CCCCNCCCN1C(=O)c2cc([N+](=O)[O-])cc3c2c(cc2cccnc23)C1=O [Example 111, 4-[3-(3-Nitro-5-azaphenanthrene-1,10-dicarboximido)propylamino]-1-(3-nitronaphthalene-1,8-dicarboximido)butane Hydromethanesulfonate]",3 ng/mL,2 ng/mL,–,moderate to excellent,moderate to excellent,240 µg/mL,–,–,"DLD-2 tumor regressions, IR=incomplete regression ([3]; 18 mg/kg, i.v. once daily for nine days, nude mice): 2/7; inhibition in vivo at 18 mg/kg [3, 6]: 99%; MX-1 tumor regressions, FR=full regression ([4]; 20 mg/kg, i.v. once daily for nine days, nude mice): 1/9; inhibition in vivo at 20 mg/kg [4, 10]: 99%; responders at 20 mg/kg [4, 8]: 77.8%"
"CS(=O)(=O)O.O=C1c2cc([N+](=O)[O-])cc3c2c(cc2cccnc23)C(=O)N1CCCCNCCCN1C(=O)c2cc([N+](=O)[O-])cc3c2c(cc2cccnc23)C1=O [Example 5, 4-[3-(3-Nitro-5-azaphenanthrene-1, 10-dicarboximido)propylamino]-1-(3-nitro-5-azaphenanthrene-1, 10-dicarboximido)butane Hydromethanesulfonate]",6 ng/mL,13 ng/mL,82%,moderate to excellent,–,60 µg/mL,–,–,–
"CS(=O)(=O)O.O=C1c2cc([N+](=O)[O-])cc3c2c(cc2cccnc23)C(=O)N1CCCNCCN1C(=O)c2cc([N+](=O)[O-])cc3c2c(cc2cccnc23)C1=O [Example 3, 3-[2-(3-Nitro-5-azaphenanthrene-1,10-dicarboximido)ethylamino]-1-(3-nitro-5-azaphenanthrene-1, 10-dicarboximido) propane Hydromethanesulfonate]",6 ng/mL,4 ng/mL,–,moderate to excellent,–,80 µg/mL,–,–,"inhibition in vivo at 20 mg/kg [3, 6]: 92%"
"CS(=O)(=O)O.O=C1c2cc([N+](=O)[O-])cc3c2c(cc2cccnc23)C(=O)N1CCCNCCCN1C(=O)c2cc([N+](=O)[O-])cc3c2c(cc2cccnc23)C1=O [Example 4, 3-[3-(3-Nitro-5-azaphenanthrene-1,10-dicarboximido)propylamino]-1-(3-nitro-5-azaphenanthrene-1, 10-dicarboximido)propane Hydromethanesulfonate]",11 ng/mL,5 ng/mL,57%,–,–,450 µg/mL,–,–,–
"CS(=O)(=O)O.O=C1c2cc([N+](=O)[O-])cc3c2c(cc2ncccc23)C(=O)N1CCCCNCCCN1C(=O)c2cc([N+](=O)[O-])cc3c2c(cc2ncccc23)C1=O [Example 18, 4-[3-(3-Nitro-8-azaphenanthrene-1,10-dicarboximido)propylamino]-1-(3-nitro-8-azaphenanthrene-1, 10-dicarboximido)butane Hydromethanesulfonate]",1 ng/mL,7 ng/mL,–,moderate to excellent,–,20 µg/mL,–,–,"inhibition in vivo at 12.5 mg/kg [3, 6]: 84%"
"CS(=O)(=O)O.CS(=O)(=O)O.C[C@@H](CNCCNC[C@H](C)N1C(=O)c2cc([N+](=O)[O-])cc3c2c(cc2cccnc23)C1=O)N1C(=O)c2cc([N+](=O)[O-])cc3c2c(cc2cccnc23)C1=O [Example 7, (S,S)-1,2-bis-[2-(3-Nitro-5-azaphenanthrene-1,10-dicarboximido)propylamino]ethane Dihydromethanesulfonate]",48 ng/mL,28 ng/mL,–,moderate to excellent,–,680 µg/mL,–,–,"inhibition in vivo at 12.5 mg/kg [3, 6]: 83%"
